In patent US20240228512A1, “ACYCLIC OXAZEPINE COMPOUNDS COMPRISING A 6-AZA MOIETY AND USES THEREOF” (Genentech, Inc., priority 2022, published 2024):

Tests used:
[1] = target: recombinant human KRAS wild type (SOS1-mediated nucleotide exchange) (Homo sapiens (Human), UniProt P01116); assay: KRAS biochemical assay, BODIPY-GDP exchange TR-FRET (WT-GDP HTRF)
[2] = target: recombinant human mutant KRas G12V (SOS1-mediated nucleotide exchange) (Homo sapiens (Human), UniProt P01116, G12V); assay: KRAS biochemical assay, BODIPY-GDP exchange TR-FRET (G12V-GDP HTRF)
Chain of recombinant human mutant KRas G12V (SOS1-mediated nucleotide exchange) (P01116-2 other isoform, or with tags, fused parts or gaps G12V): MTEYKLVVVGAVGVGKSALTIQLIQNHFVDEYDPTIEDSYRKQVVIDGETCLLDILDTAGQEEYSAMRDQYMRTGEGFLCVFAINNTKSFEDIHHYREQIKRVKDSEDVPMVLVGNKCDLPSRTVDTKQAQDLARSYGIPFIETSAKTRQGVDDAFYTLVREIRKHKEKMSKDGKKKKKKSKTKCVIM

SW620 cells = assay: SW620 3D proliferation assay (CellTiter-Glo); type: cell-based; settings: Homo sapiens, SW-620, 168 h, SW620, 3D culture, 7 days, read-out: SW620 CTG IC50
How it was run: (§1)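 Cells were seeded in ultra-low attachment plates (3000 or 1000 cells/well for 96- or 384-well format) in RPMI-1640, 10% FBS, 2 mM L-glutamine and cultured overnight at 37 °C/5% CO2 to form spheroids. Compounds were added by 333-fold dilution from DMSO for 7 days. Viability was read as CellTiter-Glo 3D ATP luminescence, with IC50 from a 4-parameter logistic fit.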

H1975 cells = assay: H1975 CTG proliferation assay; type: cell-based; settings: Homo sapiens, NCI-H1975, H1975, CTG
HPAC cells = assay: HPAC 3D proliferation assay (CellTiter-Glo); type: cell-based; settings: Homo sapiens, 168 h, 3D culture, 7 days, read-out: HPAC CTG IC50
How it was run: as §1

SW480 cells = assay: SW480 CTG proliferation assay; type: cell-based; settings: Homo sapiens
SW620 PERK = SW620 PERK assay; type: cell-based; settings: Homo sapiens, SW-620, SW620, PERK

Chain of recombinant human KRAS wild type (SOS1-mediated nucleotide exchange) (P01116-2 other isoform, or with tags, fused parts or gaps): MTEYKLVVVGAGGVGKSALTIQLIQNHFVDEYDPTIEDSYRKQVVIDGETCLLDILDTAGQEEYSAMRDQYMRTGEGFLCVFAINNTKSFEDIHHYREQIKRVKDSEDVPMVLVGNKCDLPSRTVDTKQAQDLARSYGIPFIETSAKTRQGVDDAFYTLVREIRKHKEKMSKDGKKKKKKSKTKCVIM

| Structure (SMILES) | IC50 [1] [nM] | IC50 [2] [nM] | IC50 (SW620 cells) [nM] | IC50 (H1975 cells) [nM] | IC50 (SW480 cells) [nM] | IC50 (SW620 PERK) [nM] | IC50 (HPAC cells) [nM] |
| --- | --- | --- | --- | --- | --- | --- | --- |
| C[C@H](c1cccnc1N)N1CCOc2nc(-c3cc(N)c(F)c(F)c3C(F)(F)F)c(F)c3nc(OC[C@@]45CCCN4C[C@H](F)C5)nc1c23 [Example 623, 3-((R)-1-(5-(5-amino-3,4-difluoro-2-(trifluoromethyl)phenyl)-4-fluoro-2-(((2R,7aS)-2-fluorotetrahydro-1H-pyrrolizin-7a(5H)-yl)methoxy)-8,9-dihydro-10H-7-oxa-1,3,6,10-tetraazacyclohepta[de]naphthalen-10-yl)ethyl)pyridin-2-amine] |  |  | 3.3 | 4300 | 50 | 2.29 | 14.1 |
| Cc1cc(N)c(F)c(-c2nc3c4c(nc(OC[C@@]56CCCN5C[C@H](F)C6)nc4c2F)N([C@H](C)c2cccnc2N)CCO3)c1C(F)(F)F [Example 15, 3-((1R)-1-(5-(3-amino-2-fluoro-5-methyl-6-(trifluoromethyl)phenyl)-4-fluoro-2-(((2R,7aS)-2-fluorotetrahydro-1H-pyrrolizin-7a(5H)-yl)methoxy)-8,9-dihydro-10H-7-oxa-1,3,6,10-tetraazacyclohepta[de]naphthalen-10-yl)ethyl)pyridin-2-amine] |  |  | 0.74 | 2.59 | 10 | 2.24 | 8.84 |
| Cc1c(F)c(N)c(F)c(-c2nc3c4c(nc(OC[C@@]56CCCN5C[C@H](F)C6)nc4c2F)N([C@H](C)c2cccnc2N)CCO3)c1C(F)(F)F [Example 12, 3-((1R)-1-(5-(3-amino-2,4-difluoro-5-methyl-6-(trifluoromethyl)phenyl)-4-fluoro-2-(((2R,7aS)-2-fluorotetrahydro-1H-pyrrolizin-7a(5H)-yl)methoxy)-8,9-dihydro-10H-7-oxa-1,3,6,10-tetraazacyclohepta[de]naphthalen-10-yl)ethyl)pyridin-2-amine] |  |  | 5.63 | 59.4 | 2.8 | 1.62 | 14.7 |

Now from value to molecule, other results behind:

| IC50 [1] [nM] | IC50 [2] [nM] | IC50 (SW620 cells) [nM] | IC50 (H1975 cells) [nM] | IC50 (SW480 cells) [nM] | IC50 (SW620 PERK) [nM] | Structure (SMILES) | IC50 (HPAC cells) [nM] |
| --- | --- | --- | --- | --- | --- | --- | --- |
| 0.26 | 0.11 | 32.3 | 77 | 350 | 19.3 | C[C@H](c1cccnc1N)N1CCOc2nc(-c3cc(O)cc4ccccc34)c(F)c3nc(OC[C@@]45CCCN4C[C@H](F)C5)nc1c23 [Example 26, 4-(10-((R)-1-(2-aminopyridin-3-yl)ethyl)-4-fluoro-2-(((2R,7aS)-2-fluorotetrahydro-1H-pyrrolizin-7a(5H)-yl)methoxy)-9,10-dihydro-8H-7-oxa-1,3,6,10-tetraazacyclohepta[de]naphthalen-5-yl)naphthalen-2-ol] | 416 |
|  |  | 1.26 | 2.59 | 2.4 | 1.07 | C#Cc1cccc2cc(N)cc(-c3nc4c5c(nc(OC[C@@]67CCCN6C[C@H](F)C7)nc5c3F)N([C@H](C)c3cccnc3N)CCO4)c12 [Example 4, 3-((R)-1-(5-(3-amino-8-ethynyinaphthalen-1-yl)-4-fluoro-2-(((2R,7aS)-2-fluorotetrahydro-1H-pyrrolizin-7a(5H)-yl)methoxy)-8,9-dihydro-10H-7-oxa-1,3,6,10-tetraazacyclohepta[de]naphthalen-10-yl)ethyl)pyridin-2-amine] | 5.72 |
|  |  | 1020 | 5170 | 700 | 466 | C[C@H](c1cccnc1N)N1CCOc2nc(-c3cccc4sc(N)nc34)c(F)c3nc(OC[C@@]45CCCN4C[C@H](F)C5)nc1c23 [Example 24, 4-(10-((R)-1-(2-aminopyridin-3-yl)ethyl)-4-fluoro-2-(((2R,7aS)-2-fluorotetrahydro-1H-pyrrolizin-7a(5H)-yl)methoxy)-9,10-dihydro-8H-7-oxa-1,3,6,10-tetraazacyclohepta[de]naphthalen-5-yl)benzo[d]thiazol-2-amine] | 2000 |
